Several values for one entry are separate records, joined by “and”; a condition that tells them apart may be missing. Equal values may be shown once.
How the values were obtained:
Test in all cases: Caliper, Mobility shift assay off-chip
[1] = target: PRKCA (human) (UniProt P17252)
[2] = target: MARK2 (human) (UniProt Q7KZI7)
[3] = target: RPS6KB1 (human) (UniProt P23443)
[4] = target: PRKCQ (human) (UniProt Q04759)
[5] = target: FGFR2 (human) (UniProt P21802)
[6] = test system: ABL1 (human), P00519 [T315I]
[7] = target: SGK2 (human) (UniProt Q9HBY8)
Chain of SGK2 (human) (Q9HBY8 whole entry, looked up): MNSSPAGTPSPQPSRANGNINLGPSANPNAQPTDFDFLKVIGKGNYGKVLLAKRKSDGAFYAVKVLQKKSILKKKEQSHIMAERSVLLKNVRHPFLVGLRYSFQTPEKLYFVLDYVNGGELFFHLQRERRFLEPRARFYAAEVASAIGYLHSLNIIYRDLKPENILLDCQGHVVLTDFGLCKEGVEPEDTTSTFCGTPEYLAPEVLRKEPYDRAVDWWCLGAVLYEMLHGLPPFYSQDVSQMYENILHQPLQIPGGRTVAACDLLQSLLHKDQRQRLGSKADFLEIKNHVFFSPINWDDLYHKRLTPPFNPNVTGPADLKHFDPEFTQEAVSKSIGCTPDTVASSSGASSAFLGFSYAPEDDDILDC

[8] = target: MARK1 (human) (UniProt Q9P0L2)
[9] = target: PRKG1 (human) (UniProt Q13976)
[10] = target: FGFR3 (human) (UniProt P22607)
[11] = target: PRKD2 (human) (UniProt Q9BZL6)
[12] = target: PRKCD (human) (UniProt Q05655)
Chain of PRKCD (human) (Q05655 whole entry, looked up): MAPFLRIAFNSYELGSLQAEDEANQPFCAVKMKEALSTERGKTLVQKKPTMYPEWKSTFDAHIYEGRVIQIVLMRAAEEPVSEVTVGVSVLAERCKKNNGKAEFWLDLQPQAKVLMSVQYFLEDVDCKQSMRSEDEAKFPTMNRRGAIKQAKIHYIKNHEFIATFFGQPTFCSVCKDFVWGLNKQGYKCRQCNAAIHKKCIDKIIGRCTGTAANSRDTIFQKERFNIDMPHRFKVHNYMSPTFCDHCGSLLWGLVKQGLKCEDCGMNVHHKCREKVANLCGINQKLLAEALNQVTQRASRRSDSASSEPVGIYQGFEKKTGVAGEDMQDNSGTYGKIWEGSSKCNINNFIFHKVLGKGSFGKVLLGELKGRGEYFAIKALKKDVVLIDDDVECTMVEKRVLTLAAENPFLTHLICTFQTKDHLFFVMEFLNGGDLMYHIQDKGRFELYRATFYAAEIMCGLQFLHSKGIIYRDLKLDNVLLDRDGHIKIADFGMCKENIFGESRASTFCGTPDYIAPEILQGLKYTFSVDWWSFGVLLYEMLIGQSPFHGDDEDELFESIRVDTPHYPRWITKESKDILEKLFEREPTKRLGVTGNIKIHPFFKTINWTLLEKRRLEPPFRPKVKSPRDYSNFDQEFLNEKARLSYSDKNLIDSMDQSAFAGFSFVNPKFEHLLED

[13] = target: MAPK12 (human) (UniProt P53778)
[14] = target: MAPK1 (human) (UniProt P28482)
[15] = target: RPS6KA2 KD1 KD2 (human) (UniProt Q15349)
Chain of RPS6KA2 KD1 KD2 (human) (Q15349 whole entry, looked up): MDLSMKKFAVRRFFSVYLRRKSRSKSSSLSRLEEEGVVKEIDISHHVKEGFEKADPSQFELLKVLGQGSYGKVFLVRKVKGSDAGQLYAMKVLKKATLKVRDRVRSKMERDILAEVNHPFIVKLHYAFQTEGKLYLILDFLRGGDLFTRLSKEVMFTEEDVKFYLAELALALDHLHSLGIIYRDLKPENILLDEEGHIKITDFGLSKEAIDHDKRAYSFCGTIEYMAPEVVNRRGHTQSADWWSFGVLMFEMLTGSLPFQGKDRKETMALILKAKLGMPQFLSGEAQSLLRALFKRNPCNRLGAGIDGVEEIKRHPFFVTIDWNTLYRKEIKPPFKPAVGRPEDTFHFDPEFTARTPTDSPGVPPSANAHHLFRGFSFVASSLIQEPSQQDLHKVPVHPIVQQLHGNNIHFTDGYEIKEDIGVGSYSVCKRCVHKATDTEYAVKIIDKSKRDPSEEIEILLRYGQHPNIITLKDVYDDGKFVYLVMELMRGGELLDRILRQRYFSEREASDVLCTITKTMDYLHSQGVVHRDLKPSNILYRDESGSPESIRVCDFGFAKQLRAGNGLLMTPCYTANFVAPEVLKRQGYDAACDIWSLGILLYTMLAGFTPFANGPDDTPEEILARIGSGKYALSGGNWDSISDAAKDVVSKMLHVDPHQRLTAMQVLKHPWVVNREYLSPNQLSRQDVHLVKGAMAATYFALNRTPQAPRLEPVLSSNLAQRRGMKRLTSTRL

[16] = target: RPS6KA5 KD1 KD2 (human) (UniProt O75582)
[17] = target: PRKCG (human) (UniProt P05129)
[18] = target: SGK3 (human) (UniProt Q96BR1)
[19] = target: MAPKAPK3 (human) (UniProt Q16644)
[20] = target: IKBKB (human) (UniProt O14920)
[21] = target: FYN (human) (UniProt P06241)
Chain of FYN (human) (P06241 whole entry, looked up): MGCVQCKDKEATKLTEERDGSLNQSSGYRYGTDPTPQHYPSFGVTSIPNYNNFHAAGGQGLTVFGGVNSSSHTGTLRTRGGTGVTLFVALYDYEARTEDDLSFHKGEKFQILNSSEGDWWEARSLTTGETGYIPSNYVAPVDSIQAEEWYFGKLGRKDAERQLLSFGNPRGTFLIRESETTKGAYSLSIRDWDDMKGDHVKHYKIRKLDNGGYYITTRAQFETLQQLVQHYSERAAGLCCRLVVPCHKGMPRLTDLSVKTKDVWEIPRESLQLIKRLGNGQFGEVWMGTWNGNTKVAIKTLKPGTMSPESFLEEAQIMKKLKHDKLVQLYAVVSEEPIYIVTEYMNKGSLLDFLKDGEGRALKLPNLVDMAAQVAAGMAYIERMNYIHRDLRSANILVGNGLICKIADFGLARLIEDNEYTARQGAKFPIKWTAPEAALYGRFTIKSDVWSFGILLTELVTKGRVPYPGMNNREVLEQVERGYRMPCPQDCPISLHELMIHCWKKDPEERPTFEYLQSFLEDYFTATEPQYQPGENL

[22] = target: PRKACA (human) (UniProt P17612)
[23] = test system: FLT3 (human), P36888 [D835Y]
[24] = target: MAPKAPK2 (human) (UniProt P49137)
[25] = target: NEK2 (human) (UniProt P51955)
Chain of NEK2 (human) (P51955 whole entry, looked up): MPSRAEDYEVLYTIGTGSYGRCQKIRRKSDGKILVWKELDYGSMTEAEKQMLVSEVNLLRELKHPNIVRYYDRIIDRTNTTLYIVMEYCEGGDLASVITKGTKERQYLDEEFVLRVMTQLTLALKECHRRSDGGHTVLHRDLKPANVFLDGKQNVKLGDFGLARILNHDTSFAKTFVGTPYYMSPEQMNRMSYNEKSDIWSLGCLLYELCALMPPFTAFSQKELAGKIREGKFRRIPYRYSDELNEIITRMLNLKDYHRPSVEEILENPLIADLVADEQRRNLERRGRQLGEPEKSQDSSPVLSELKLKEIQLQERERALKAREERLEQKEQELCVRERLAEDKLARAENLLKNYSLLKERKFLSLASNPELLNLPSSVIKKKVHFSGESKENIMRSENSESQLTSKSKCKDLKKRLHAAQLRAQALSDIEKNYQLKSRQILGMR

[26] = target: BRSK2 (human) (UniProt Q8IWQ3)
[27] = target: BRSK1 (human) (UniProt Q8TDC3)
[28] = target: SRC (human) (UniProt P12931)
[29] = target: PDGFRA (human) (UniProt P16234)
Chain of PDGFRA (human) (P16234 whole entry, looked up): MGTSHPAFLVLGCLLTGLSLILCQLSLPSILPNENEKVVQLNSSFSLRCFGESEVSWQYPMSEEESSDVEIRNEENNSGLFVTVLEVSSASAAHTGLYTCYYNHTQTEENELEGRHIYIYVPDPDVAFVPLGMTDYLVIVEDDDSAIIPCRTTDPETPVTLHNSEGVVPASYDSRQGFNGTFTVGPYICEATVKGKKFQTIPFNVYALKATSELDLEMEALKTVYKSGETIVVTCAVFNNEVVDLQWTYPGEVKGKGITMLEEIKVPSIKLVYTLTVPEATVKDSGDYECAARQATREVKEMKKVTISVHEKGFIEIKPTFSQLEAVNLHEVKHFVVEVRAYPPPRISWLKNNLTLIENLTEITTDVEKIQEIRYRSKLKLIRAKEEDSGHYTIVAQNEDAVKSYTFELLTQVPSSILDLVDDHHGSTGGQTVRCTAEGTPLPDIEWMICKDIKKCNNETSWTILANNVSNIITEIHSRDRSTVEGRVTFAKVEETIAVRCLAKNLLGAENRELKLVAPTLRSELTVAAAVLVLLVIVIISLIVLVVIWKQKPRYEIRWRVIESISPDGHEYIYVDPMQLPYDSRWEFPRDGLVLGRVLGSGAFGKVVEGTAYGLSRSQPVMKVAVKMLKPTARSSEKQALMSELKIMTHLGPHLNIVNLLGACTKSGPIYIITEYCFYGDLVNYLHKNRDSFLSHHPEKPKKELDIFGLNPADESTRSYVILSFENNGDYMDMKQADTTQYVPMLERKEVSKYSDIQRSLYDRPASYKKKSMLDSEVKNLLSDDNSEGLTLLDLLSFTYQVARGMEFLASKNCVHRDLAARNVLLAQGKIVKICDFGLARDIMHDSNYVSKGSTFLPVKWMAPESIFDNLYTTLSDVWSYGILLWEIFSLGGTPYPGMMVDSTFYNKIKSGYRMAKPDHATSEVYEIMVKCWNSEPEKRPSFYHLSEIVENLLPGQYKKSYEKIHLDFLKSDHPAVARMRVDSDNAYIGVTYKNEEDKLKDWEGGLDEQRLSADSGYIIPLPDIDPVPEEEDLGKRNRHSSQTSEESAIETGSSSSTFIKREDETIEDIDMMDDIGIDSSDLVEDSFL

[30] = target: CAMK2G (human) (UniProt Q13555)
[31] = target: BTK (human) (UniProt Q06187)
Chain of BTK (human) (Q06187 whole entry, looked up): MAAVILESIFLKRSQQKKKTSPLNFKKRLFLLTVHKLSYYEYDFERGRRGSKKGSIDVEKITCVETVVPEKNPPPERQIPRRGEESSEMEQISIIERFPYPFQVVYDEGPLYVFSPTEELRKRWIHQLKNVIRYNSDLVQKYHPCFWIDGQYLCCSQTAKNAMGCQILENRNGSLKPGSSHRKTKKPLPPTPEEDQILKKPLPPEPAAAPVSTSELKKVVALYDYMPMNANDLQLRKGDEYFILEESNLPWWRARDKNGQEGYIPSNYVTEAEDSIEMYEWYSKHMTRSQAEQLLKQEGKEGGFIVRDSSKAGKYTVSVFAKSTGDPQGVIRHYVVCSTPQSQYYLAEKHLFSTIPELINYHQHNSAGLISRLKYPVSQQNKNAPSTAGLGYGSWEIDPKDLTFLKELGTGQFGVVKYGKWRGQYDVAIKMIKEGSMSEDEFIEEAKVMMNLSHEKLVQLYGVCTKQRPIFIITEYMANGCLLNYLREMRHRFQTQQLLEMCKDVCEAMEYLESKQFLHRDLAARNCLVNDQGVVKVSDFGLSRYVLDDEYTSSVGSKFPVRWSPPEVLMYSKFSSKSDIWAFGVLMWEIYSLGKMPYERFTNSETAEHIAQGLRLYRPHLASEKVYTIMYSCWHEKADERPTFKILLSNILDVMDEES

[32] = test system: ABL1 (human), P00519 [H396P]
[33] = target: PRKCZ (human) (UniProt Q05513)
[34] = target: RPS6KA4 KD1 KD2 (human) (UniProt O75676)

Chain of RPS6KB1 (human) (P23443 whole entry, looked up): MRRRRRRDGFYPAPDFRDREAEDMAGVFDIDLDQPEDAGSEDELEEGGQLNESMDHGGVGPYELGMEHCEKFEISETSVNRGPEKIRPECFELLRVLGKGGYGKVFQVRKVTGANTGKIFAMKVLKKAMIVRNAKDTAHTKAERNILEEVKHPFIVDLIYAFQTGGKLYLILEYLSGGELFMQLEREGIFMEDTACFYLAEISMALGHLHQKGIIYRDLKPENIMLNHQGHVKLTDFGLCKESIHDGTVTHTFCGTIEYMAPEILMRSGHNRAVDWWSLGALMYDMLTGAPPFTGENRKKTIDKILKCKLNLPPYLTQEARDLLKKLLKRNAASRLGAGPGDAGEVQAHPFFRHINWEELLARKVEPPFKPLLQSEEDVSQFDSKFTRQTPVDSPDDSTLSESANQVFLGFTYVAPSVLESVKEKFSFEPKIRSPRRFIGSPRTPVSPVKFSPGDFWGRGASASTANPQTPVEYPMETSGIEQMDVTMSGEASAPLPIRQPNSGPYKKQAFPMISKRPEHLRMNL

Q: What does the source list for Cn1cc(-c2cnc3ccc4ccc(CS(=O)(=O)NC5CCCCC5)cc4c(=O)c3c2)cn1?
A: inhibition ([1]; compound 0.01 µM): -5.5%; inhibition ([1]; compound 0.1 µM): 5.2%; inhibition ([2]; compound 0.01 µM): -2.5%; inhibition ([2]; compound 0.1 µM): -1.4%; inhibition ([3]; compound 0.01 µM): 8%; inhibition ([3]; compound 0.1 µM): 4.2%; inhibition ([4]; compound 0.01 µM): -6.4%; inhibition ([4]; compound 0.1 µM): -1.3%; inhibition ([5]; compound 0.01 µM): 0.5%; inhibition ([5]; compound 0.1 µM): 16.5%; inhibition ([6]; compound 0.01 µM): 0.6%; inhibition ([6]; compound 0.1 µM): 0.3%; inhibition ([7]; compound 0.01 µM): -1.3%; inhibition ([7]; compound 0.1 µM): -0.1%; inhibition ([8]; compound 0.01 µM): 0.6%; inhibition ([8]; compound 0.1 µM): 5.5%; inhibition ([9]; compound 0.01 µM): 3.2% and -1.8%; inhibition ([9]; compound 0.1 µM): 9.2% and -4.9%; inhibition ([10]; compound 0.01 µM): -4%; inhibition ([10]; compound 0.1 µM): 7.8%; inhibition ([11]; compound 0.01 µM): 1.6%; inhibition ([11]; compound 0.1 µM): -3.6%; inhibition ([12]; compound 0.01 µM): -8.7%; inhibition ([12]; compound 0.1 µM): 8.3%; inhibition ([13]; compound 0.01 µM): 2%; inhibition ([13]; compound 0.1 µM): 5.1%; inhibition ([14]; compound 0.01 µM): -10.5%; inhibition ([14]; compound 0.1 µM): -4.8%; inhibition ([15]; compound 0.01 µM): 6.7%; inhibition ([15]; compound 0.1 µM): 10.4%; inhibition ([16]; compound 0.01 µM): 3.4%; inhibition ([16]; compound 0.1 µM): -4.2%; inhibition ([17]; compound 0.01 µM): 2.4%; inhibition ([17]; compound 0.1 µM): 2.1%; inhibition ([18]; compound 0.01 µM): 4.9%; inhibition ([18]; compound 0.1 µM): 17.7%; inhibition ([19]; compound 0.01 µM): -8%; inhibition ([19]; compound 0.1 µM): 4.1%; inhibition ([20]; compound 0.01 µM): 3.8%; inhibition ([20]; compound 0.1 µM): -0.4%; inhibition ([21]; compound 0.01 µM): -0.7%; inhibition ([21]; compound 0.1 µM): -3%; inhibition ([22]; compound 0.01 µM): 2.8%; inhibition ([22]; compound 0.1 µM): -0.1%; inhibition ([23]; compound 0.01 µM): -3%; inhibition ([23]; compound 0.1 µM): 6.8%; inhibition ([24]; compound 0.01 µM): -0.8%; inhibition ([24]; compound 0.1 µM): -0.9%; inhibition ([25]; compound 0.01 µM): 0.9%; inhibition ([25]; compound 0.1 µM): -2.6%; inhibition ([26]; compound 0.01 µM): 0.3%; inhibition ([26]; compound 0.1 µM): 9.7%; inhibition ([27]; compound 0.01 µM): -2.1%; inhibition ([27]; compound 0.1 µM): -1.6%; inhibition ([28]; compound 0.01 µM): 2.2%; inhibition ([28]; compound 0.1 µM): -1.4%; inhibition ([29]; compound 0.01 µM): 0.2%; inhibition ([29]; compound 0.1 µM): 9%; inhibition ([30]; compound 0.01 µM): 13.5%; inhibition ([30]; compound 0.1 µM): -2.8%; inhibition ([31]; compound 0.01 µM): 8.4%; inhibition ([31]; compound 0.1 µM): 5.5%; inhibition ([32]; compound 0.01 µM): 2.2%; inhibition ([32]; compound 0.1 µM): 0.5%; inhibition ([33]; compound 0.01 µM): 1.8%; inhibition ([33]; compound 0.1 µM): 3.6%; inhibition ([34]; compound 0.01 µM): -2.3%; inhibition ([34]; compound 0.1 µM): -2.1%

Q: What does the source list for CN(c1ccc2ccc3ncc(-c4cnn(C)c4)cc3c(=O)c2c1)S(=O)(=O)NCc1ccccn1?
A: inhibition ([1]; compound 0.1 µM): 0.1%; inhibition ([1]; compound 1.0 µM): -10.6%; inhibition ([2]; compound 0.1 µM): -3.7%; inhibition ([2]; compound 1.0 µM): 12.6%; inhibition ([3]; compound 0.1 µM): -1%; inhibition ([3]; compound 1.0 µM): -6.2%; inhibition ([4]; compound 0.1 µM): -2.9%; inhibition ([4]; compound 1.0 µM): -2%; inhibition ([5]; compound 0.1 µM): 29.4%; inhibition ([5]; compound 1.0 µM): 76.6%; inhibition ([6]; compound 0.1 µM): 3.3%; inhibition ([6]; compound 1.0 µM): 41.1%; inhibition ([7]; compound 0.1 µM): 1.8%; inhibition ([7]; compound 1.0 µM): 3.7%; inhibition ([8]; compound 0.1 µM): 6.6%; inhibition ([8]; compound 1.0 µM): 16.4%; inhibition ([9]; compound 0.1 µM): 8.1% and 4.1%; inhibition ([9]; compound 1.0 µM): 11.8% and 4.9%; inhibition ([10]; compound 0.1 µM): 26.3%; inhibition ([10]; compound 1.0 µM): 81%; inhibition ([11]; compound 0.1 µM): 5.7%; inhibition ([11]; compound 1.0 µM): -9.6%; inhibition ([12]; compound 0.1 µM): -0.8%; inhibition ([12]; compound 1.0 µM): 2.2%; inhibition ([13]; compound 0.1 µM): -6%; inhibition ([13]; compound 1.0 µM): 0.4%; inhibition ([14]; compound 0.1 µM): -4%; inhibition ([14]; compound 1.0 µM): 1.8%; inhibition ([15]; compound 0.1 µM): -5.9%; inhibition ([15]; compound 1.0 µM): 9.6%; inhibition ([16]; compound 0.1 µM): -3.5%; inhibition ([16]; compound 1.0 µM): 8.1%; inhibition ([17]; compound 0.1 µM): -8.6%; inhibition ([17]; compound 1.0 µM): -6.9%; inhibition ([18]; compound 0.1 µM): -5.3%; inhibition ([18]; compound 1.0 µM): 1.1%; inhibition ([19]; compound 0.1 µM): -0.1%; inhibition ([19]; compound 1.0 µM): -2.3%; inhibition ([20]; compound 0.1 µM): 10%; inhibition ([20]; compound 1.0 µM): 18.6%; inhibition ([21]; compound 0.1 µM): -0.3%; inhibition ([22]; compound 0.1 µM): -11.5%; inhibition ([22]; compound 1.0 µM): -3.3%; inhibition ([23]; compound 0.1 µM): 49.8%; inhibition ([23]; compound 1.0 µM): 86.5%; inhibition ([24]; compound 0.1 µM): -0.4%; inhibition ([24]; compound 1.0 µM): 2.9%; inhibition ([25]; compound 0.1 µM): -6%; inhibition ([25]; compound 1.0 µM): -4.9%; inhibition ([26]; compound 0.1 µM): -0.7%; inhibition ([26]; compound 1.0 µM): 6.6%; inhibition ([27]; compound 0.1 µM): 3.3%; inhibition ([27]; compound 1.0 µM): 0.5%; inhibition ([28]; compound 0.1 µM): -3.2%; inhibition ([28]; compound 1.0 µM): 14.2%; inhibition ([29]; compound 0.1 µM): -13.5%; inhibition ([29]; compound 1.0 µM): 31.2%; inhibition ([30]; compound 1.0 µM): 0.4%; inhibition ([31]; compound 0.1 µM): 4.7%; inhibition ([31]; compound 1.0 µM): 4.9%; inhibition ([32]; compound 0.1 µM): -1.8%; inhibition ([32]; compound 1.0 µM): 42.1%; inhibition ([33]; compound 0.1 µM): 1.7%; inhibition ([33]; compound 1.0 µM): 3.7%; inhibition ([34]; compound 0.1 µM): -2.2%; inhibition ([34]; compound 1.0 µM): 7.4%
